Laboratory results: ChEMBL document CHEMBL3351596, “Design, synthesis and anti-leishmanial activity of novel symmetrical bispyridinium cyclophanes” (Eur J Med Chem, 2015)
Activity calls are given as the source filed them. The rule behind the calls is not given here.

Legend:
THP-1 = experiment: Cytotoxicity against human THP1 cells after 48 hrs by MTT assay; format: cell-based; conditions: THP-1, 48 h
[1] = Selectivity index, ratio of EC50 for human THP1 cells to EC50 for Leishmania donovani MHOM/IND/80/Dd8 amastigotes infected in human THP1 cells; format: toxicity, cell-based, THP-1; conditions: read-out: Ratio EC50
Leishmania major [2] = experiment: Anti-leishmanial activity against Leishmania major MHOM/JL/80/ Friedlin promastigotes incubated for 72 hrs at 28 degC; format: functional, organism-based
[3] = Selectivity index, ratio of EC50 for human THP1 cells to EC50 for Leishmania major MHOM/JL/80/ Friedlin amastigotes infected in human THP1 cells; format: toxicity, cell-based, THP-1; conditions: read-out: Ratio EC50
Leishmania major [4] = experiment: Anti-leishmanial activity against Leishmania major MHOM/JL/80/ Friedlin amastigotes infected in human THP1 cells incubated for 72 hrs at 37 degC by DAPI staining based assay; format: functional, organism-based; conditions: THP-1, 72 h
Leishmania donovani [5] = experiment: Anti-leishmanial activity against Leishmania donovani MHOM/IND/80/Dd8 amastigotes infected in human THP1 cells incubated for 72 hrs at 37 degC by DAPI staining based assay; format: functional, organism-based; conditions: MHOM/IND/80/Dd8, THP-1, 72 h
Leishmania donovani [6] = experiment: Anti-leishmanial activity against Leishmania donovani MHOM/IND/80/Dd8 promastigotes incubated for 72 hrs at 28 degC; format: functional, organism-based; conditions: MHOM/IND/80/Dd8, 72 h
Leishmania donovani [7] = experiment: Anti-leishmanial activity against Leishmania donovani MHOM/IND/80/Dd8 promastigotes incubated for 72 hrs at 28 degC in presence of 10 mM choline; format: functional, organism-based; conditions: MHOM/IND/80/Dd8, 72 h
Leishmania major [8] = experiment: Induction of plasma membrane depolarization in Leishmania major MHOM/JL/80/ Friedlin promastigotes at 0.2 uM after 1 hr by […] dye based fluorescence assay; format: functional, organism-based
Leishmania donovani [9] = experiment: Effect on mitochondrial membrane potential in Leishmania donovani MHOM/IND/80/Dd8 promastigotes at 30 uM after 3 hrs by […] dye based fluorescence assay; format: functional, organism-based
[10] = Selectivity index, ratio of EC50 for Leishmania donovani MHOM/IND/80/Dd8 promastigotes to EC50 for Leishmania major MHOM/JL/80/ Friedlin promastigotes; format: functional
Leishmania donovani [11] = experiment: Induction of plasma membrane depolarization in Leishmania donovani MHOM/IND/80/Dd8 promastigotes at 30 uM after 3 hrs by […] dye based fluorescence assay; format: functional, organism-based
Leishmania donovani [12] = experiment: Anti-leishmanial activity against Leishmania donovani MHOM/IND/80/Dd8 amastigotes expressing pXG-EK infected in human THP1 cells incubated for 72 hrs at 37 degC; format: functional, organism-based; conditions: MHOM/IND/80/Dd8, THP-1, 72 h
Leishmania donovani [13] = experiment: Anti-leishmanial activity against Leishmania donovani MHOM/IND/80/Dd8 promastigotes expressing pXG-CEK incubated for 72 hrs at 28 degC; format: functional, organism-based; conditions: MHOM/IND/80/Dd8, 72 h
Leishmania major [14] = experiment: Reduction in ATP level in Leishmania major MHOM/JL/80/ Friedlin promastigotes at 0.2 uM after 1 hr by cell-titer-Glo luminescence assay; format: functional
Leishmania donovani [15] = experiment: Anti-leishmanial activity against Leishmania donovani MHOM/IND/80/Dd8 amastigotes expressing pXG-CEK infected in human THP1 cells incubated for 72 hrs at 37 degC; format: functional, organism-based; conditions: MHOM/IND/80/Dd8, THP-1, 72 h
Leishmania major [16] = experiment: Reduction in ATP level in Leishmania major MHOM/JL/80/ Friedlin promastigotes at 30 uM after 3 hrs by cell-titer-Glo luminescence assay; format: functional
Leishmania donovani [17] = experiment: Reduction in ATP level in Leishmania donovani MHOM/IND/80/Dd8 promastigotes at 30 uM after 3 hrs by cell-titer-Glo luminescence assay; format: functional, organism-based
Leishmania donovani [18] = experiment: Anti-leishmanial activity against Leishmania donovani MHOM/IND/80/Dd8 promastigotes expressing pXG empty vector incubated for 72 hrs at 28 degC; format: functional, organism-based; conditions: MHOM/IND/80/Dd8, 72 h
Leishmania major [19] = experiment: Effect on mitochondrial membrane potential in Leishmania major MHOM/JL/80/ Friedlin promastigotes at 0.2 uM after 1 hr by […] dye based fluorescence assay; format: functional, organism-based
Leishmania donovani [20] = experiment: Anti-leishmanial activity against Leishmania donovani MHOM/IND/80/Dd8 promastigotes incubated for 72 hrs at 28 degC in presence of 10 mM ethanolamine; format: functional, organism-based; conditions: MHOM/IND/80/Dd8, 72 h
Leishmania major [21] = experiment: Reduction in ATP level in Leishmania major MHOM/JL/80/ Friedlin promastigotes at 0.2 uM measured up to 3 hrs by cell-titer-Glo luminescence assay; format: functional, organism-based
Leishmania donovani [22] = experiment: Anti-leishmanial activity against Leishmania donovani MHOM/IND/80/Dd8 amastigotes expressing pXG empty vector infected in human THP1 cells incubated for 72 hrs at 37 degC; format: functional, organism-based; conditions: MHOM/IND/80/Dd8, THP-1, 72 h
Leishmania donovani [23] = experiment: Anti-leishmanial activity against Leishmania donovani MHOM/IND/80/Dd8 promastigotes expressing pXG-EK incubated for 72 hrs at 28 degC; format: functional, organism-based; conditions: MHOM/IND/80/Dd8, 72 h

| Structure (SMILES) | EC50 (Leishmania major [2]) [µM] | EC50 (Leishmania major [4]) [µM] | EC50 (Leishmania donovani [5]) [µM] | EC50 (Leishmania donovani [6]) [µM] | EC50 (THP-1) [µM] | selectivity ratio [1] | selectivity ratio [3] | other results |
| --- | --- | --- | --- | --- | --- | --- | --- | --- |
| CCCCCCCCCCCCCCCCOP(=O)([O-])OCC[N+](C)(C)C [MILTEFOSINE] | 16.6 | 10.6 | 0.88 | 6.6 | 26.9 | 30.5 | 2.5 |  |
| c1c[n+]2ccc1NCCCCCNc1cc[n+](cc1)CCCCC2 | 0.07 | 1.26 | 7.62 | 10.6 | 154 | 20.2 | 122 | EC50 (Leishmania donovani [7]): 11.5 µM; Activity (Leishmania major [8]): Active; Activity (Leishmania donovani [9]): inactive; Ratio EC50 [10]: 100; Activity (Leishmania donovani [11]): inactive; EC50 (Leishmania donovani [12]): 10.5 µM; EC50 (Leishmania donovani [13]): 11.5 µM; inhibition at 0.2 µM (Leishmania major [14]): > 50%; EC50 (Leishmania donovani [15]): 12.7 µM; inhibition at 30 µM (Leishmania major [16]): 95%; inhibition (Leishmania donovani [17]): inactive; EC50 (Leishmania donovani [18]): 13.5 µM; Activity (Leishmania major [19]): inactive; EC50 (Leishmania donovani [20]): 12 µM; inhibition (Leishmania major [21]): Active; EC50 (Leishmania donovani [22]): 8.84 µM; EC50 (Leishmania donovani [23]): 12 µM |
| c1cc2ccc1CNc1cc[n+](cc1)CCOCC[n+]1ccc(cc1)NC2 | 26.5 | 17.2 | 63.7 | 76.9 | 222 | 3.5 | 12.9 |  |
| c1cc2cc(c1)CNc1cc[n+](cc1)CCCCC[n+]1ccc(cc1)NC2 | 16.8 | 5.94 | 13.5 | 52 | 192 | 14.2 | 32.3 |  |
| c1cc2cc(c1)CNc1cc[n+](cc1)CCOCC[n+]1ccc(cc1)NC2 | 5.97 | 8.67 | 8.92 | 33.8 | 195 |  | 22.5 |  |

Further molecules by falling EC50 (Leishmania major [2]), results first:

| EC50 (Leishmania major [2]) [µM] | EC50 (Leishmania major [4]) [µM] | EC50 (Leishmania donovani [5]) [µM] | EC50 (Leishmania donovani [6]) [µM] | Structure (SMILES) | EC50 (THP-1) [µM] | selectivity ratio [1] | selectivity ratio [3] | other results |
| --- | --- | --- | --- | --- | --- | --- | --- | --- |
| 2.87 | 1.61 | 21.2 | 76.3 | c1cc2cc(c1)C[n+]1ccc(cc1)NCCOCCNc1cc[n+](cc1)C2 | 194 | 9.2 | 121 |  |
| 0.32 | 0.24 | 0.28 | 0.21 | C[C@@H]1[C@H](O)[C@@H](C)/C=C/C=C/C=C/C=C/C=C/C=C/C=C/[C@H](O[C@@H]2O[C@H](C)[C@@H](O)[C@H](N)[C@@H]2O)C[C@@H]2O[C@](O)(C[C@@H](O)C[C@@H](O)[C@H](O)CC[C@@H](O)C[C@@H](O)CC(=O)O[C@H]1C)C[C@H](O)[C@H]2C(=O)O [AMPHOTERICIN B] | 14.3 | 51.1 | 59.7 |  |
| 0.26 | 2.59 | 33.2 | 31.5 | c1c[n+]2ccc1NCCOCCNc1cc[n+](cc1)CCCCC2 | 162 | 4.9 | 62.7 |  |
| 0.26 | 2.18 | 13 | 31.4 | c1c[n+]2ccc1NCCCCCNc1cc[n+](cc1)CCOCC2 | 215 | 16.6 | 98.5 |  |
| 0.19 | 2.24 | 20.7 | 23.4 | c1c[n+]2ccc1NCCOCCNc1cc[n+](cc1)CCOCC2 | 128 | 6.2 | 57.2 |  |
| 0.17 | 0.97 | 38.3 | 26.4 | c1cc2ccc1CNc1cc[n+](cc1)CCCCC[n+]1ccc(cc1)NC2 | 165 | 4.3 | 170 |  |
